Results reported in patent US9328138B2 (priority 2011, dated 2016).

Tests used:
[1] = target: T1, HCV genotype 1b (BK) NS3 modified enzyme with a R155K mutation (Hepatitis C virus genotype 1b, UniProt P26663, R1181K); assay: HCV NS3 protease time-resolved fluorescence (TRF) assay, genotype 1b R155K; assay type: biochemical; details: Ki 1b R155K
T1 construct: HCV genotype 1b (BK) NS3 modified enzyme
How it was run: (§1)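 Inhibitor titrations are mixed with NS3/NS4A in pH 7.5 HEPES buffer containing 10 mM DTT and 15% glycerol for 10 min before substrate (25 nM final) is added. After 6 h at room temperature, delayed fluorescence is read and fitted to a four-parameter curve for IC50.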

[2] = target: HCV NS3 protease genotype 3a (3A-1) (Hepatitis C virus genotype 3a, UniProt Q81258); assay: HCV NS3 protease time-resolved fluorescence (TRF) assay, genotype 3a; assay type: biochemical; details: Ki 3a
How it was run: as §1

[3] = genotype 1b (BK) NS3 R155K, single value
[4] = first of two values printed in the cell (not explained)
[5] = second of two values printed in the cell (not explained)

| Structure (SMILES) | Ki [1, 3] | Ki [2] | Ki [1, 4] | Ki [1, 5] |
| --- | --- | --- | --- | --- |
| C=C[C@@H]1C[C@]1(NC(=O)[C@@H]1C[C@@H]2CN1C(=O)[C@H](C1CCCC1)NC(=O)O[C@@H]1CCC[C@H]1CC/C=C/Cc1c(nc3cccc(Cl)c3c1OC)O2)C(=O)NS(=O)(=O)C1CC1 [Example 10, (3aR,7S,10S,12R,21E,24aS)-18-chloro-7-cyclopentyl-N-{(1R,2S)-1-[(cyclopropylsulfonyl)carbamoyl]-2-ethenylcyclopropyl}-19-methoxy-5,8-dioxo-1,2,3,3a,5,6,7,8,11,12,20,23,24,24a-tetradecahydro-10H-9,12-methanocyclopenta [18,19][1,10,3,6]dioxadiazacyclononadecino [11,12-b]quinoline-10-carboxamide] | 0.19 nM | 11 nM |  |  |
| C=C[C@@H]1C[C@]1(NC(=O)[C@@H]1C[C@@H]2CN1C(=O)[C@H](C(C)(C)C)NC(=O)O[C@@H]1CCC[C@H]1CC/C=C/Cc1c(nc3ccccc3c1OCCCOCCOC)O2)C(=O)NS(=O)(=O)C1(C)CC1 [Example 56, (3aR,7S,10S,12R,21E,24aS)-7-tert-butyl-N-[(1R,2S)-2-ethenyl-1-{[(1-methylcyclopropyl)sulfonyl]carbamoyl}cyclopropyl]-19-[3-(2-methoxyethoxy)propoxy]-5,8-dioxo-1,2,3,3a,5,6,7,8,11,12,20,23,24,24a-tetradecahydro-10H-9,12-methanocyclopenta[18,19][1,10,3,6]dioxadiazacyclononadecino[11,12-b] quinoline-10-carboxamide] | 0.09 nM | 0.95 nM |  |  |
| C=C[C@@H]1C[C@]1(NC(=O)[C@@H]1C[C@@H]2CN1C(=O)[C@H](C(C)(C)C)NC(=O)O[C@@H]1C[C@H]1CCCCCc1c(nc3ccccc3c1OCCN(C)c1ccccc1)O2)C(=O)NS(=O)(=O)C1(C)CC1 [Example 130, (1aR,5S,8S,10R,22aR)-5-tert-butyl-N-[(1R,2S)-2-ethenyl-1-{[(1-methylcyclopropyl)sulfonyl]carbamoyl}cyclopropyl]-17-{2-[methyl(phenyl)amino]ethoxy}-3,6-dioxo-1,1a,3,4,5,6,9,10,18,19, cyclopropa[18,19][1,10,3,6] dioxadiazacyclononadecino [11,12-b]quinoline-8-carboxamide] | 2.2 nM | 18 nM |  |  |
| CC1(S(=O)(=O)NC(=O)[C@@]23C[C@H]2/C=C\CCCCC[C@@H]2NC(=O)O[C@@H]4C[C@H]4CCC/C=C/c4c(nc5ccccc5c4OCCCN4CCOCC4)O[C@@H]4C[C@@H](C(=O)N3)N(C4)C2=O)CC1 [Example 298, (1aR,5S,11Z,12aS,13aR,16S,19R,27E, 31aR)-N-[(1-methylcyclopropyl)sulfonyl]-26-[3-(morpholin-4-yl)propoxy]-3,15,33-trioxo-1,1a,3,4,5,6,7,8,9,10,12a,13,15,16,18,19,29, 30,31,31a-icosahydro-5,17:16,19-dimethanodicyclopropa[12,13:28,29][1,20,3,14,17]dioxatriazacyclononacosino[21,22-b]quinoline-13a(14H)-carboxamide] | 0.49 nM | 4 nM |  |  |
| C=C[C@@H]1C[C@]1(NC(=O)[C@@H]1C[C@@H]2CN1C(=O)[C@H](C(C)(C)C)NC(=O)O[C@@H]1C[C@H]1CCCCCc1c(nc3ccccc3c1OCCc1ccncc1)O2)C(=O)NS(=O)(=O)C1(C)CC1 [Example 219, (1aR,5S,8S,10R,22aR)-5-tert-butyl-N-[(1R,2S)-2-ethenyl-1-{[(1-methylcyclopropyl)sulfonyl]carbamoyl}cyclopropyl]-3,6-dioxo-17-[2-(pyridine-4-yl)ethoxy]-1,1a,3,4,5,6,9,10,18,19,20,21,22,22a-tetradecahydro-8H-7,10-methanocyclopropa[18,19][1,10,3,6] dioxadiazacyclononadecino[11,12-b]quinoline-8-carboxamide] | 0.12 nM | 1.9 nM |  |  |
| C=C[C@@H]1C[C@]1(NC(=O)[C@@H]1C[C@@H]2CN1C(=O)[C@H](C1(C)CCCCC1)NC(=O)O[C@@H]1C[C@H]1CCCCCc1c(nc3ccccc3c1OC1CCN(C)CC1)O2)C(=O)NS(=O)(=O)C1(C)CC1 [Example 232, (1aR,5S,8S,10R,22aR)—N-[(1R,2S)-2-ethenyl-1-{[(1-methylcyclopropyl)sulfonyl]carbamoyl}cyclopropyl]-5-(1-methylcyclohexyl)-17-[(1-methylpiperidin-4-yl)oxy]-3,6-dioxo-1,1a,3,4,5,6,9,10,18,19,20,21,22,22a-tetradecahydro-8H-7,10-methanocyclopropa[18,19][1,10,3,6]dioxadiazacyclononadecino[11,12-b]quinoline-8-carboxamide] |  | 0.275 nM | 0.02 nM | 0.04 nM |
| C=C[C@@H]1C[C@]1(NC(=O)[C@@H]1C[C@@H]2CN1C(=O)[C@H](C(C)(C)C)NC(=O)O[C@@H]1C[C@H]1CCCCCc1c(nc3cc(C)ccc3c1OCCCNC1CC1)O2)C(=O)NS(=O)(=O)C1(C)CC1 [Example 145, (1aR,5S,8S,10R,22aR)-5-tert-butyl-17-[3-(cyclopropylamino)propoxy]-N-[(1R,2S)-2-ethenyl-1-{[(1-methylcyclopropyl)sulfonyl]carbamoyl}cyclopropyl]-14-methyl-3,6-dioxo-1,1a,3,4,5,6,9,10,18,19,20,21,22,22a-tetradecahydro-8H-7,10-methanocyclopropa[18,19][1,10,3,6]dioxadiazacyclononadecino[11,12-b]quinoline-8-carboxamide] | 0.079 nM | 1.2 nM |  |  |
| C=C[C@@H]1C[C@]1(NC(=O)[C@@H]1C[C@@H]2CN1C(=O)[C@H](C(C)(C)C)NC(=O)O[C@@H]1C[C@H]1CCCCCc1c(nc3ccccc3c1-c1cccnc1)O2)C(=O)NS(=O)(=O)C1(C)CC1 [Example 246, (1aR,5S,8S,10R,22aR)-5-tert-butyl-N-[(1R,2S)-2-ethenyl-1-{[(1-methylcyclopropyl)sulfonyl]carbamoyl}cyclopropyl]-3,6-dioxo-17-(pyridin-3-yl)-1,1a,3,4,5,6,9,10,18,19,20,21,22,22a-tetradecahydro-8H-7,10-methanocyclopropa[18,19][1,10,3,6]dioxadiazacyclononadecino[11,12-b]quinoline-8-carboxamide] |  | 211 nM | 1.02 nM | 1.14 nM |
| C=C[C@@H]1C[C@]1(NC(=O)[C@@H]1C[C@@H]2CN1C(=O)[C@H](C(C)(C)C)NC(=O)O[C@@H]1C[C@H]1CCCCCc1c(nc3cc(F)ccc3c1OCCCN1CCCC1)O2)C(=O)NS(=O)(=O)C1(C)CC1 [Example 151, (1aR,5S,8S,10R,22aR)-5-tert-butyl-N-[(1R,2S)-2-ethenyl-1-{[(1-methylcyclopropyl)sulfonyl]carbamoyl}cyclopropyl]-14-fluoro-3,6-dioxo-17-[3-(pyrrolidin-1-yl)propoxy]-1,1a,3,4,5,6,9,10,18, 19,20,21,22,22a-tetradecahydro-8H-7,10-methanocyclopropa[18,19][1,10,3,6] dioxadiazacyclononadecino[11,12-b] quinoline-8-carboxamide] | 0.074 nM | 0.62 nM |  |  |
